Experiment: gradient 5% acetonitrile 3 min, to 50% in 2 min, to 85% in 15 min, held 3 min, 100 µL/min
Details: column: Zorbax Extend-C18 2.1 x 50 mm; eluents: water / acetonitrile, 0.1% formic acid
Method in brief: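 Over 3 months, pure standards in mixtures of ~100 molecules were run by HPLC coupled to a quadrupole time-of-flight mass spectrometer in positive and negative ionization mode. The column was a Zorbax Extend-C18 (2.1 × 50 mm, 1.8 μm) at 100 μL/min, eluted with water and acetonitrile each holding 0.1% formic acid, with 40 μL dead and 900 μL dwell volumes. Retention time was determined from adduct peaks chosen by software and checked manually.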

SMILES | RP-LC retention time
COc1ccc(-c2cc3c(=O)n(Cc4nc(-c5ccc(OC)cc5)oc4C)ccn3n2)cc1 | 1070 s
O=C(NCCCc1ccccc1)c1cccc2c1CCN2C(=O)C1CC1 | 902 s
Cc1c(C(=O)N2CCN(Cc3nc(C(C)(C)C)cs3)CC2)cccc1[N+](=O)[O-] | 740 s
CCN(CC)c1nc2ccsc2c(=O)n1CCC(=O)NCCc1c[nH]c2ccccc12 | 822 s
O=C(c1cc2ccccc2o1)N1CCN(C(=O)C2COc3ccccc3O2)CC1 (centres undefined) | 829 s
Cn1cccc1C(=O)NCc1cnoc1-c1ccc(F)cc1 | 860 s
COc1ccc(C(C)NC(=O)c2cn3ccc(C)cc3n2)cc1 (centres undefined) | 645 s
Cc1noc(CNC(=O)C2CCN(C(=O)c3snnc3C)CC2)n1 | 563 s
Cc1nn(C(C)C(=O)NCCN2CCCCC2C)c(=O)c2c1sc1ccccc12 (centres undefined) | 680 s
COc1ccc(N2CCN(C(=O)c3cc4c(s3)CCN(C(C)=O)C4)CC2)cc1 | 674 s
O=C(Nc1nc(-c2ccccc2)cs1)c1ccncc1 | 734 s
COC(=O)c1c(NCc2ccccc2F)c2cccc(Cl)c2[nH]c1=O | 808 s
Cc1nn(C(C)C(=O)NCCCN2CCc3ccccc3C2)c(=O)c2c(C)n(-c3ccccc3)nc12 (centres undefined) | 690 s
COc1ccc(C2(CNS(=O)(=O)c3ccc(OC)c(Cl)c3)CCOCC2)cc1 | 842 s
Cc1oc(C2CCN(C(=O)Nc3ccccc3F)CC2)nc1C(=O)N1CCCC1 | 753 s
C[C@H](NC(=O)Cc1cc(F)cc(F)c1)C(=O)N[C@@H]1C(=O)N(C)c2ccccc2-c2ccccc21 | 949 s
O=C(c1ccc2[nH]ccc2c1)N1CCCN(C2CCN(CC3CC3)C2=O)CC1 (centres undefined) | 888 s
CCOc1ccccc1C1C(C(=O)OC)=C(C)NC2=C1C(=O)c1ccccc12 (centres undefined) | 887 s
O=c1[nH]c2ccc(NCc3ccc(F)cc3)cc2[nH]1 | 580 s
Cc1ccc(-n2nc(N3CCCC(C(=O)NCCCc4ccccc4)C3)ccc2=O)cc1Cl (centres undefined) | 1010 s
O=C(Cn1cnc2cc3c(cc21)OCCO3)Nc1ccc2c(c1)OCCO2 | 623 s
Cc1nc(-c2ccc(OC3CCN(C(=O)c4[nH]nc5c4COc4ccccc4-5)C3)cc2)no1 (centres undefined) | 846 s
Cc1cccc(S(=O)(=O)NCc2c(-c3ccccc3)nc3sc(C)nn23)c1 | 802 s

SMILES | RP-LC retention time
O=C(Cn1cccc1-c1nnc(-c2ccccc2)o1)N1CCN(C2CCCCC2)CC1 | 687 s
COc1cccc(C(=O)Nc2cc(-c3ccccn3)no2)c1 | 788 s
COc1cc(C(=O)N2CCC(CC(=O)N3CCN(c4ccccn4)CC3)CC2)cc(OC)c1OC | 595 s
CCCCOC(=O)COc1cc(O)c2c(=O)cc(-c3ccccc3)oc2c1 | 1230 s
COCCn1c(SCc2nc(-c3cccc(F)c3)no2)nc2cc3c(cc2c1=O)OCO3 | 1090 s
Cc1nc(N2CCCC(C(=O)NC(C)C)C2)c2c(C)c(C)oc2n1 (centres undefined) | 712 s
Cn1cc(-c2cc3n(n2)CCC(=O)N3CCCC(=O)N2CCN(c3ccccn3)CC2)c2ccccc21 | 619 s
O=C(Cn1ccn2nc(-c3ccccc3)c(CO)c2c1=O)Nc1ccc(Cl)cc1 | 856 s
COc1cc(Cl)c(NC(=O)C2CCCN(c3nccnc3Sc3ccc(C)cc3)C2)c(OC)c1 (centres undefined) | 1260 s
COCCN1C(=O)CCc2cc(NS(=O)(=O)c3ccc(F)cc3F)ccc21 | 723 s
CCOC(=O)c1ccccc1NC(=O)C1CCCN(c2cc(-n3cccn3)ncn2)C1 (centres undefined) | 1100 s
CCC(C)[C@H](NC(=O)N1C[C@H]2C[C@@H](C1)c1cccc(=O)n1C2)C(=O)OC (some centres undefined) | 624 s
CCOC(=O)CNC(=O)c1cn(CC)nc1S(=O)(=O)N1CCN(c2ccccc2OCC)CC1 | 962 s
Cc1ccccc1NC(=O)Cn1nc2c(Oc3cccc(F)c3)nccn2c1=O | 846 s
CCC(=O)Nc1ccc(S(=O)(=O)NCCc2ccc(N(C)C)cc2)c(C)c1 | 570 s
O=C(c1c[nH]c2ccccc12)N1C[C@@H]2C[C@H]1C[C@@H]2NS(=O)(=O)c1ccccc1 | 679 s
Cc1csc(-c2cc(S(=O)(=O)NCc3ccccc3Cl)c(C)s2)n1 | 1050 s
CCCOC1CCN(C(=O)NC)CC1 | 630 s
COc1ccc(C2(C(=O)Nc3ccc4c(c3)Sc3ncccc3C(=O)N4C)CC2)cc1 | 902 s
O=C(NC1CCCCCC1)C1CCCN(C(=O)c2cc(-c3ccncc3)n[nH]2)C1 (centres undefined) | 627 s
Cc1ccc(-c2nnc(Cc3nc(-c4ccc(OC(C)C)cc4)no3)o2)cc1F | 1190 s
Cn1ncc2c3ccccc3n(CCCC(=O)N3CCN(c4ccccn4)CC3)c2c1=O | 607 s
COc1ccc(-c2cn3c(CC(=O)Nc4ccc(F)c(Cl)c4)csc3n2)cc1 | 832 s

SMILES | RP-LC retention time
Cc1cc(C)cc(NC(=O)C2CCN(S(=O)(=O)c3ccc4c(c3)CCCC(=O)N4)CC2)c1 | 834 s
CN(CC(O)COc1ccc2c(c1)OCO2)C1CCCCC1 (centres undefined) | 567 s
CCOc1ccccc1NC(=O)Nc1ccc2c(c1)CC(=O)N2 | 675 s
COc1ccc2nc(-c3ccc(Cl)cc3)cc(C(=O)O)c2c1 | 1090 s
CCC(C(=O)Nc1ccc(C(C)=O)cc1)n1cnc2nc3c(cc2c1=O)CCCC3 (centres undefined) | 748 s
COc1ccc(OC)c(C(O)CN2CCN(c3ccc(C)cc3)CC2)c1 (centres undefined) | 653 s
CCCNc1cc(N2CCC(CCC(=O)NCc3cccc(C)c3)CC2)ncn1 | 716 s
O=C(NCc1ccc(F)cc1Cl)C1CCCN(c2cnc3nccnc3c2)C1 (centres undefined) | 748 s
COc1ccccc1N1CCN(c2cc(SCC(=O)Nc3ccc(C#N)cc3)ncn2)CC1 | 890 s
O=C(Nc1ccc2nncn2c1)c1cccc(Cl)c1 | 719 s
O=C(CCC1CCN(c2cc(NC3CC3)ncn2)CC1)NCc1ccccc1Cl | 676 s
CCc1nc2c(c(=O)n1CC(=O)NCc1cccc(C)c1)CN(Cc1ccccc1)CC2 | 661 s
CCOc1ccc(-c2csc3c(=O)n(CC(C)C)cnc23)cc1OCC | 1100 s
Cc1nc(-c2cn(C)c3ncccc23)sc1C(=O)NCc1ccccc1 | 863 s
O=C1CCN(C(=O)c2ccco2)CCCCCCN1 | 633 s
Cc1cc(C)n2nc(SCC(=O)NC3CCCC(C)C3C)nc2n1 (centres undefined) | 776 s
CCC1Oc2ccc(S(=O)(=O)N3CCC(C(=O)NC4CC4)CC3)cc2NC1=O (centres undefined) | 688 s
COc1ccc(C2CC(=O)c3cnc4c(c3C2)c(=O)n(C)c(=O)n4C)cc1 (centres undefined) | 913 s
Cc1[nH]c2ccccc2c1C(=O)C(=O)N(C)Cc1ccccc1 | 805 s
CS(=O)(=O)N[C@H]1C[C@@H]2C[C@H]1CN2C(=O)c1ccccc1C(F)(F)F | 705 s
CC(NC(=O)c1ccco1)c1nc2ccccc2n1CC(=O)N1CCCCC1 (centres undefined) | 627 s
Cc1ccc(S(=O)(=O)N2CCCC2c2nc(-c3cccc(Cl)c3)no2)cc1F (centres undefined) | 1280 s
COc1ccccc1N1CCN(C(=O)c2cn3cc(Cl)ccc3n2)CC1 | 858 s

SMILES | RP-LC retention time
Cc1nn(-c2ccc(F)cc2)c2nc(N3CCCC(C(=O)NCc4cccc(F)c4)C3)sc12 (centres undefined) | 1130 s
O=C(c1ccc(F)cc1)N(CC1CCOC1)C1CC1 (centres undefined) | 747 s
CC1=NS(=O)(=O)N(C)C=C1C(=O)OCc1ccccc1Cl | 951 s
CCNC(=O)CC1=C2CCCCC2N(C(C)C)C1=O (centres undefined) | 671 s
CCc1sc(NC(=O)c2cc(C)on2)nc1-c1ccccc1 | 1060 s
CCCNC(=O)Cc1c(C)nc2nc(-c3ccccc3)nn2c1C | 704 s
COC(=O)c1ncn2c1C(=O)N(Cc1ccccc1C)C(C)(C(=O)NC1CCCCC1)C2 (centres undefined) | 792 s
O=C(Cn1c(N2CCCCC2)nc2ccccc2c1=O)NCc1cccc(Cl)c1 | 659 s
O=C(Cn1ccc2ccc(N3CCOCC3)nc21)N1CCN(c2ccc(Cl)cc2)CC1 | 1000 s
O=C(NCc1ccccc1)C1CCCN(S(=O)(=O)c2c[nH]c(C(=O)N3CCCC3)c2)C1 (centres undefined) | 748 s
CCn1ccc(C(=O)N2CCC(c3nc4cccnc4n3CCOC)C2)n1 (centres undefined) | 606 s
COc1cccc(NC(=O)C2CC(=O)N(c3n[nH]c4cccc(F)c34)C2)c1 (centres undefined) | 737 s
CCCOc1nc2ccccc2nc1N1CCCC(C(=O)Nc2cccc(CC)c2)C1 (centres undefined) | 1260 s
CC(C)CNC(=O)N1CCCC(c2nn[nH]n2)C1 (centres undefined) | 617 s
COc1ccc(OCC(=O)N2CCC(C(=O)NCCc3csc(-c4ccccc4)n3)CC2)cc1 | 818 s
O=C(CCc1nnc2ccc(N3CCCCC3)nn12)N1CCN(c2ccccn2)CC1 | 597 s
O=C(C1CCCO1)N1CCC(CCOc2cccc(F)c2)CC1 (centres undefined) | 842 s
NS(=O)(=O)c1ccc(NC(=O)Cc2csc3nc(-c4ccccc4)cn23)cc1 | 650 s
O=C(C1CCN(c2nnc(-n3cccc3)s2)CC1)N1CCN(c2ccccn2)CC1 | 640 s
CCn1ccc(C(=O)NCC(=O)N2CCCc3ccccc32)n1 | 703 s
